From the supplement of paper PMC6965134
± gives the standard deviation of the averaged measurements.

Test: TIMS collisional cross section (CCS, N2) of the lipid ion; higher = larger ion cross section
Details: ionization mode: negative, one isomer drawn
Procedure: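 Lipid extracts of human plasma (NIST SRM 1950), mouse liver or HeLa cells were separated by nanoflow C18 LC (30 min gradient) and analysed by TIMS-PASEF on a timsTOF Pro. Ion mobility was calibrated with the Agilent tuning mix (negative mode ions) and converted to collisional cross sections (Mason–Schamp, N2).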

[1] = sample type: Human plasma, ion (formula + adduct): [C42H78NO8P+HCOO] 1-
[2] = sample type: Mouse Liver, ion (formula + adduct): [C42H78NO8P+HCOO] 1-
[3] = sample type: Mouse Liver, ion (formula + adduct): [C46H82NO8P+HCOO] 1-
[4] = sample type: Mouse Liver, ion (formula + adduct): [C45H82NO8P+HCOO] 1-
[5] = sample type: Mouse Liver, ion (formula + adduct): [C47H82NO8P+HCOO] 1-
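Also: lipids from MTBE extraction, five replicate injections per sample, 100 ms TIMS ramp spanning 0.6–1.95 Vs/cm², lipid identity assigned from PASEF MS/MS spectra.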

C=CCCC(=O)O[C@H](COC(=O)CCCCCCCCCCCCCCC)COP(=O)([O-])OCC[N+](C)(C)C [PC 16:0_5:1]
TIMS collisional cross section (sample type: Mouse Liver, ion (formula + adduct): [C29H56NO8P+AcO] 1-): 252.1 Å²

CCCCCCCCCCCCCCCC(=O)OC[C@H](COP(=O)([O-])OCC[N+](C)(C)C)OC(=O)CCCCCCCC [PC 16:0_9:0@]
TIMS collisional cross section (sample type: Human plasma, ion (formula + adduct): [C33H66NO8P-H] 1-): 260.3 Å²

CCCCCCCCCCCCCCCC(=O)OC[C@H](COP(=O)([O-])OCC[N+](C)(C)C)OC(=O)CCCCCCCCCCCCCCC [PC 16:0_16:0]
TIMS collisional cross section (sample type: Human plasma, ion (formula + adduct): [C40H80NO8P+HCOO] 1-): 289.35 ± 2.3 Å² | TIMS collisional cross section (sample type: Mouse Liver, ion (formula + adduct): [C40H80NO8P+HCOO] 1-): 287.7 Å²

CCCCCC/C=C\CCCCCCCC(=O)O[C@H](COC(=O)CCCCCCCCCCCCCCC)COP(=O)([O-])OCC[N+](C)(C)C [PC 16:0_16:1]
TIMS collisional cross section (sample type: Human plasma, ion (formula + adduct): [C40H78NO8P+HCOO] 1-): 286.6 Å²

CCCCCCCCCCCCCCCCC(=O)O[C@H](COC(=O)CCCCCCCCCCCCCCC)COP(=O)([O-])OCC[N+](C)(C)C [PC 16:0_17:0]
TIMS collisional cross section (sample type: Human plasma, ion (formula + adduct): [C41H82NO8P+HCOO] 1-): 290.3 Å²

CCCCCCC/C=C\CCCCCCCC(=O)O[C@H](COC(=O)CCCCCCCCCCCCCCC)COP(=O)([O-])OCC[N+](C)(C)C [PC 16:0_17:1]
TIMS collisional cross section (sample type: Mouse Liver, ion (formula + adduct): [C41H80NO8P+HCOO] 1-): 288.8 Å²

CCCCCCCCCCCCCCCCCC(=O)O[C@H](COC(=O)CCCCCCCCCCCCCCC)COP(=O)([O-])OCC[N+](C)(C)C [PC 16:0_18:0]
TIMS collisional cross section (sample type: Human plasma, ion (formula + adduct): [C42H84NO8P+HCOO] 1-): 293.4 Å² | TIMS collisional cross section (sample type: Mouse Liver, ion (formula + adduct): [C42H84NO8P+AcO] 1-): 299.1 Å² | TIMS collisional cross section (sample type: Mouse Liver, ion (formula + adduct): [C42H84NO8P+HCOO] 1-): 293.4 Å²

CCCCC/C=C\C/C=C\C/C=C\CCCCC(=O)O[C@H](COC(=O)CCCCCCCCCCCCCCC)COP(=O)([O-])OCC[N+](C)(C)C [PC 16:0_18:3@]
TIMS collisional cross section [1]: 288.8 Å²

CCCCC/C=C\C/C=C\C/C=C\CCCCC(=O)O[C@H](COC(=O)CCCCCCCCCCCCCCC)COP(=O)([O-])OCC[N+](C)(C)C [PC 16:0_18:3]
TIMS collisional cross section [1]: 289.9 Å² | TIMS collisional cross section [2]: 289.15 ± 0.21 Å²

CC/C=C\C/C=C\C/C=C\C/C=C\C/C=C\CCCC(=O)O[C@H](COC(=O)CCCCCCCCCCCCCCC)COP(=O)([O-])OCC[N+](C)(C)C [PC 16:0_20:5]
TIMS collisional cross section (sample type: Human plasma, ion (formula + adduct): [C44H78NO8P+HCOO] 1-): 292.7 Å² | TIMS collisional cross section (sample type: Mouse Liver, ion (formula + adduct): [C44H78NO8P-CH3] 1-): 275.6 Å²

CCCCC/C=C\C/C=C\C/C=C\C/C=C\C/C=C\CCC(=O)O[C@H](COC(=O)CCCCCCCCCCCCCCC)COP(=O)([O-])OCC[N+](C)(C)C [PC 16:0_22:5]
TIMS collisional cross section [3]: 298.9 Å²

CC/C=C\C/C=C\C/C=C\C/C=C\C/C=C\C/C=C\CCC(=O)O[C@H](COC(=O)CCCCCCCCCCCCCCC)COP(=O)([O-])OCC[N+](C)(C)C [PC 16:0_22:6]
TIMS collisional cross section (sample type: Human plasma, ion (formula + adduct): [C46H80NO8P+HCOO] 1-): 297.8 Å² | TIMS collisional cross section (sample type: Mouse Liver, ion (formula + adduct): [C46H80NO8P+HCOO] 1-): 297.75 ± 0.78 Å²

CCCCC/C=C\C/C=C\CCCCCCCC(=O)O[C@H](COC(=O)CCCCCCC/C=C\CCCCCC)COP(=O)([O-])OCC[N+](C)(C)C [PC 16:1@_18:2]
TIMS collisional cross section (sample type: Mouse Liver, ion (formula + adduct): [C42H78NO8P-H] 1-): 273.3 Å²

CCCCC/C=C\C/C=C\C/C=C\C/C=C\CCCCCC(=O)O[C@H](COC(=O)CCCCCCC/C=C\CCCCCC)COP(=O)([O-])OCC[N+](C)(C)C [PC 16:1@_22:4]
TIMS collisional cross section [3]: 297.7 Å²

CCCCC/C=C\C/C=C\C/C=C\C/C=C\C/C=C\CCC(=O)O[C@H](COC(=O)CCCCCCC/C=C\CCCCCC)COP(=O)([O-])OCC[N+](C)(C)C [PC 16:1@_22:5]
TIMS collisional cross section (sample type: Mouse Liver, ion (formula + adduct): [C46H80NO8P-CH3] 1-): 280.1 Å²

CCCCCC/C=C\CCCCCCCC(=O)OC[C@H](COP(=O)([O-])OCC[N+](C)(C)C)OC(=O)CCCCCCCCCCCCC/C=C\CCCCCCCC [PC 16:1@_24:1]
TIMS collisional cross section (sample type: Mouse Liver, ion (formula + adduct): [C48H92NO8P-CH3] 1-): 290.9 Å²

CCCCC/C=C\C/C=C\CCCCCCCC(=O)O[C@H](COC(=O)CCCCCCC/C=C\CCCCCC)COP(=O)([O-])OCC[N+](C)(C)C [PC 16:1_18:2]
TIMS collisional cross section [2]: 288.8 Å² | TIMS collisional cross section (sample type: Mouse Liver, ion (formula + adduct): [C42H78NO8P-CH3] 1-): 270.5 Å²

CCCCC/C=C\C/C=C\C/C=C\CCCCCCC(=O)O[C@H](COC(=O)CCCCCCC/C=C\CCCCCC)COP(=O)([O-])OCC[N+](C)(C)C [PC 16:1_20:3]
TIMS collisional cross section (sample type: Mouse Liver, ion (formula + adduct): [C44H80NO8P-CH3] 1-): 276.2 Å²

CC/C=C\C/C=C\C/C=C\C/C=C\C/C=C\CCCC(=O)O[C@H](COC(=O)CCCCCCC/C=C\CCCCCC)COP(=O)([O-])OCC[N+](C)(C)C [PC 16:1_20:5]
TIMS collisional cross section (sample type: Human plasma, ion (formula + adduct): [C44H76NO8P+HCOO] 1-): 290.4 Å² | TIMS collisional cross section (sample type: Mouse Liver, ion (formula + adduct): [C44H76NO8P+HCOO] 1-): 290.4 Å²

CC/C=C\C/C=C\C/C=C\C/C=C\C/C=C\C/C=C\CCC(=O)O[C@H](COC(=O)CCCCCCC/C=C\CCCCCC)COP(=O)([O-])OCC[N+](C)(C)C [PC 16:1_22:6]
TIMS collisional cross section (sample type: Human plasma, ion (formula + adduct): [C46H78NO8P+HCOO] 1-): 295.4 Å²

CCCCCCCCCCCCCCCCC(=O)OC[C@H](COP(=O)([O-])OCC[N+](C)(C)C)OC(C)=O [PC 17:0@_2:0]
TIMS collisional cross section (sample type: Human plasma, ion (formula + adduct): [C27H54NO8P-H] 1-): 239 ± 3 Å²

CCCCCCCC/C=C\CCCCCCCC(=O)O[C@H](COC(=O)CCCCCCCCCCCCCCCC)COP(=O)([O-])OCC[N+](C)(C)C [PC 17:0@_18:1]
TIMS collisional cross section (sample type: Mouse Liver, ion (formula + adduct): [C43H84NO8P+HCOO] 1-): 294.5 Å²

CCCCC/C=C\C/C=C\C/C=C\C/C=C\CCCC(=O)O[C@H](COC(=O)CCCCCCCCCCCCCCCC)COP(=O)([O-])OCC[N+](C)(C)C [PC 17:0@_20:4]
TIMS collisional cross section [4]: 296.7 Å²

CC/C=C\C/C=C\C/C=C\C/C=C\C/C=C\C/C=C\CCC(=O)O[C@H](COC(=O)CCCCCCCCCCCCCCCC)COP(=O)([O-])OCC[N+](C)(C)C [PC 17:0@_22:6]
TIMS collisional cross section (sample type: Human plasma, ion (formula + adduct): [C47H82NO8P+HCOO] 1-): 301.2 Å² | TIMS collisional cross section [5]: 301.2 Å²

CCCCCCCC/C=C\CCCCCCCC(=O)O[C@H](COC(=O)CCCCCCCCCCCCCCCC)COP(=O)([O-])OCC[N+](C)(C)C [PC 17:0_18:1]
TIMS collisional cross section (sample type: Human plasma, ion (formula + adduct): [C43H84NO8P+HCOO] 1-): 294.5 Å²

CCCCC/C=C\C/C=C\CCCCCCCC(=O)O[C@H](COC(=O)CCCCCCCCCCCCCCCC)COP(=O)([O-])OCC[N+](C)(C)C [PC 17:0_18:2]
TIMS collisional cross section (sample type: Mouse Liver, ion (formula + adduct): [C43H82NO8P+HCOO] 1-): 293.3 Å²

CCCCC/C=C\C/C=C\C/C=C\C/C=C\CCCC(=O)O[C@H](COC(=O)CCCCCCCCCCCCCCCC)COP(=O)([O-])OCC[N+](C)(C)C [PC 17:0_20:4]
TIMS collisional cross section [4]: 297.2 Å²

CC/C=C\C/C=C\C/C=C\C/C=C\C/C=C\C/C=C\CCC(=O)O[C@H](COC(=O)CCCCCCCCCCCCCCCC)COP(=O)([O-])OCC[N+](C)(C)C [PC 17:0_22:6]
TIMS collisional cross section [5]: 300.6 Å²

C=CC(=O)O[C@H](COC(=O)CCCCCCCCCCCCCCCCC)COP(=O)([O-])OCC[N+](C)(C)C [PC 18:0@_3:1]
TIMS collisional cross section (sample type: Mouse Liver, ion (formula + adduct): [C29H56NO8P+OAcO] 1-): 258.4 Å²

CCCCC/C=C\C/C=C\C/C=C\C/C=C\CCCC(=O)O[C@H](COC(=O)CCCCCCCCCCCCCCCCC)COP(=O)([O-])OCC[N+](C)(C)C [PC 18:0@_20:4]
TIMS collisional cross section (sample type: Human plasma, ion (formula + adduct): [C46H84NO8P+HCOO] 1-): 297.2 Å²

CC/C=C\C/C=C\C/C=C\C/C=C\C/C=C\CCCC(=O)O[C@H](COC(=O)CCCCCCCCCCCCCCCCC)COP(=O)([O-])OCC[N+](C)(C)C [PC 18:0@_20:5]
TIMS collisional cross section (sample type: Human plasma, ion (formula + adduct): [C46H82NO8P+HCOO] 1-): 301.2 Å²
